# Values joined by “and” are separate entries in the source; they are usually repeats but may differ in a detail not shown here. Equal values may be shown once. Read-outs that look alike come from different tables or passages of the source.
# What was measured:
# rat VR1 [1] = target: T1, rat VR1 (Rattus norvegicus, UniProt O35433); assay: biochemical; format: binding
# T1 construct: expressed in transfected cells
# [2] = target: T2, native rat vanilloid receptors (Rattus norvegicus, UniProt O35433); assay: biochemical; format: binding
# T2 construct: rat DRG membranes expressing native vanilloid receptors; from tissue; host or cells: dorsal root ganglia of female Sprague-Dawley rats, partially purified membrane fraction
# T2 sequence (O35433 whole entry): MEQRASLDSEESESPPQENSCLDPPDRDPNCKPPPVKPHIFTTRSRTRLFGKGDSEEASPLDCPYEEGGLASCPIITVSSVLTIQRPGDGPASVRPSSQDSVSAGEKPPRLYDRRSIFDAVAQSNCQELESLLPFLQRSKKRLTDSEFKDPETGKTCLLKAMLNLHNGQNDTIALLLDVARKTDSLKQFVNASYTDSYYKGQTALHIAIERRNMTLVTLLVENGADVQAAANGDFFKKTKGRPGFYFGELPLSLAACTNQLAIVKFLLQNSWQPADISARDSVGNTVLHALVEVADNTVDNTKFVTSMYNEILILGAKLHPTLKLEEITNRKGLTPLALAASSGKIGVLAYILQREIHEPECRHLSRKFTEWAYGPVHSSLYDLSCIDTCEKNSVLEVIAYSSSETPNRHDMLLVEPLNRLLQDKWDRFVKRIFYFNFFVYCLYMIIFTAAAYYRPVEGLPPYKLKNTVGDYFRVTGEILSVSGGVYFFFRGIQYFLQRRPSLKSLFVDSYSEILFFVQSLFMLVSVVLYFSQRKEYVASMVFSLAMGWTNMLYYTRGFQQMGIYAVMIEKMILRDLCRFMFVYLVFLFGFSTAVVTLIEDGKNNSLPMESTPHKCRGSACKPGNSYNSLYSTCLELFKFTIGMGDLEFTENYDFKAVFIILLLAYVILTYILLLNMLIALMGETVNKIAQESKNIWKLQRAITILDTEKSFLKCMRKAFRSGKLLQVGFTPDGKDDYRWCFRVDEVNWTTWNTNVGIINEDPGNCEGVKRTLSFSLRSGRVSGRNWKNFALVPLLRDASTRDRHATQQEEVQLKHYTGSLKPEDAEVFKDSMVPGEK
# rat VR1 [3] = target: T1, rat VR1; assay: cell-based
# human capsaicin receptor = target: T3, human capsaicin receptor (Homo sapiens, UniProt Q8NER1, T469I); format: cell-based
# T3 construct: expressed in transfected cells; host or cells: HEK 293T (transient, LIPOFECTAMINE; pBK-CMV phagemid clones PT35, PT44)
# T3 sequence (Q8NER1 whole entry T469I): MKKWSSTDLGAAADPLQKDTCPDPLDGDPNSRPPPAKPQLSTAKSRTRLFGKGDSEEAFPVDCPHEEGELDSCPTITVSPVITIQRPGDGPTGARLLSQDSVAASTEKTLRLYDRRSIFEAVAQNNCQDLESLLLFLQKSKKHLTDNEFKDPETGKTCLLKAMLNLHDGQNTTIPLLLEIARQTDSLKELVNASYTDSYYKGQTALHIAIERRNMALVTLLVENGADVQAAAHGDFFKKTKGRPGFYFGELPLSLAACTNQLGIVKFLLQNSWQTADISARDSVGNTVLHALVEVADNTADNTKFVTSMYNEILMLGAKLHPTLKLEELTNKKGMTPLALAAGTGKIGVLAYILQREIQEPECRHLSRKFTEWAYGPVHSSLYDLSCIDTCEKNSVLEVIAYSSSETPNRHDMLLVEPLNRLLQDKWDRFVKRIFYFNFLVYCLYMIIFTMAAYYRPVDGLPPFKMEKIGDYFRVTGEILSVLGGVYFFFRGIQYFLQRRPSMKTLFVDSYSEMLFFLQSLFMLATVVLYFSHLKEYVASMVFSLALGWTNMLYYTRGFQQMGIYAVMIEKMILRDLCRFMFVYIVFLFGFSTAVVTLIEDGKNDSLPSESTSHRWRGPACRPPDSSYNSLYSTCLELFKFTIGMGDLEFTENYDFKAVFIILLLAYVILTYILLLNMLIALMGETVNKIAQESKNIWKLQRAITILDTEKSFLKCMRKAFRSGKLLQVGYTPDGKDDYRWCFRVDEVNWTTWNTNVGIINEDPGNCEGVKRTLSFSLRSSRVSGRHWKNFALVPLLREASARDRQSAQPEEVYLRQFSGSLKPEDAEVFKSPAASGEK
# [4] = target: T4, short form of human capsaicin receptor (Homo sapiens, UniProt Q8NER1, M315I/P91S/T469I); format: cell-based
# T4 construct: expressed in transfected cells; host or cells: HEK 293T (transient, LIPOFECTAMINE; plasmid PT36)
# T4 sequence (Q8NER1 with tags, fused parts or gaps P91S/M315I/T469I): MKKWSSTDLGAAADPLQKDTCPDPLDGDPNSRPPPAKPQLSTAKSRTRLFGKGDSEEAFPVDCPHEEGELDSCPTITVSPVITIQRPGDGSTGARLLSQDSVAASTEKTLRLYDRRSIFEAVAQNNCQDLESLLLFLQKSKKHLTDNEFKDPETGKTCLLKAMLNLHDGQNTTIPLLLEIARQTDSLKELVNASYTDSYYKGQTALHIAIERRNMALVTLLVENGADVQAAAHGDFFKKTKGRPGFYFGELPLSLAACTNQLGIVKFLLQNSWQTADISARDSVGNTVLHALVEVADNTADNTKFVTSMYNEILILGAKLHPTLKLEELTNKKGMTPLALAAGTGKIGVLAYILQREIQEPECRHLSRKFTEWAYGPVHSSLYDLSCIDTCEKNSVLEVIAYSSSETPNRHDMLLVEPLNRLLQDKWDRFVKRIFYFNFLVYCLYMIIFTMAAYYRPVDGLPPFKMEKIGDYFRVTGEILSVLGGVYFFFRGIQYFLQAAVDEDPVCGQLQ
# HEK 293T cells = format: cell-based, human
# [5] = system: rat dorsal root ganglion neurons; conditions: cited from earlier work
# [6] = target: T5, rat vanilloid-receptor-like protein 1 (VRL-1) (Rattus norvegicus, UniProt Q9WUD2); conditions: cited from earlier work
# T5 sequence (Q9WUD2 1-761): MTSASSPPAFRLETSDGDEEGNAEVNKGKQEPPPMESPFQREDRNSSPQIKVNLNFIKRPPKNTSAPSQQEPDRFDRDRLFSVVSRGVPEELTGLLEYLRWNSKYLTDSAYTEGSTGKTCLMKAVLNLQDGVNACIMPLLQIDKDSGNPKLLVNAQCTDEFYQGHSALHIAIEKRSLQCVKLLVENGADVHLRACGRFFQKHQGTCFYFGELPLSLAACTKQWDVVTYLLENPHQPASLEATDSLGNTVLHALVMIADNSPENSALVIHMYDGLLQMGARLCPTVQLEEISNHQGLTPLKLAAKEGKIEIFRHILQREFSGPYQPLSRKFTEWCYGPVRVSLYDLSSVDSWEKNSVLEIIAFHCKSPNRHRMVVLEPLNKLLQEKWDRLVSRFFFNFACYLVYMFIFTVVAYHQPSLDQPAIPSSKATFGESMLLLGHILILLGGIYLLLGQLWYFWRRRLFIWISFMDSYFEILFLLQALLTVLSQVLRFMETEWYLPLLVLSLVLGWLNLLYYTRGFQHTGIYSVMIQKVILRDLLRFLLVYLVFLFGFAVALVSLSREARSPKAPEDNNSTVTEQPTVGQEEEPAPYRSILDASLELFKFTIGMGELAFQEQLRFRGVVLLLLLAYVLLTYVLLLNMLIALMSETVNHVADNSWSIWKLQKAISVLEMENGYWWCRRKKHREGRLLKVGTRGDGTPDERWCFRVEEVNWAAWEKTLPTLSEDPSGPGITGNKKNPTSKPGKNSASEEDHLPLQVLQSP
# rat VR1 [7] = target: T1, rat VR1; assay: biochemical; format: binding; remark: listed apart in the source
# rat VR1 [8] = target: T1, rat VR1; assay: cell-based; remark: listed apart in the source
# VR1 = target: T6, VR1 (Rattus norvegicus, UniProt O35433); conditions: cited from earlier work
# T6 construct: host or cells: Xenopus oocytes (A8); VR1-transfected HEK293 cells (A9)
# T6 sequence (O35433 whole entry): as the sequence (O35433 whole entry) above
# vanilloid receptor (VR) = target: T7, vanilloid receptor (VR) (Rattus norvegicus, UniProt O35433); conditions: cited from earlier work
# T7 construct: With regard to DRG neurons expressing native VRs this is clearly not the case; host or cells: intact rat dorsal root ganglion neurons
# T7 sequence (O35433 whole entry): as above
# [9] = read-out: Ki for inhibition of [3H]RTX binding
# [10] = read-out: 45Ca2+-uptake (EC50, nM), agonists
# [11] = read-out: EC50 for inducing calcium uptake / influx
# [12] = Binding affinity (nM), radioligand itself
# [13] = EC50 (potency) of calcium mobilization
# T1 sequence (O35433 whole entry): as above
compound,measurement,setting,value
CC(C)=CCC/C(C)=C/CC/C(C)=C/Cc1c(C)c(C=O)c(O)c(O)c1O [scutigeral],Ki,rat VR1 [1]; [9],20 µM and 18 µM
same,Ki,[2]; [9],21 µM
COc1cc(CNC(=O)CCCC/C=C/C(C)C)ccc1O [capsaicin],time to peak value of calcium mobilization response,rat VR1 [3],≤ 1 min
same,Ave Max Response (RFU),human capsaicin receptor,7257 RFU and 5529 RFU
same,Ave Max Response (RFU),[4],805 RFU
same,Ave Max Response (RFU),HEK 293T cells,843 RFU
same,EC50,[5]; [10],340 nM
same,EC50,[5]; [11],270 nM
same,sensitivity of VRL-1,[6],insensitive
CC1(C)C[C@H]2C=C(C=O)[C@]3(C=O)C[C@]3(C)[C@H]2C1 [isovelleral],Ki,rat VR1 [1]; Ki for inhibition of [3H]RTX binding,18 µM and 20 µM
same,Ki,[2],24 µM
N.N.N.N.N.N.N.N.N.N.N.N.N.N.[Cl-].[Cl-].[Cl-].[Cl-].[Cl-].[Cl-].[O-2].[O-2].[Ru+3].[Ru+3].[Ru+4] [ruthenium red],"Binding affinity (nM), competing ligands",rat VR1 [7],no effect
same,"Binding affinity (nM), competing ligands",[2],no effect
same,IC50,"rat VR1 [3]; read-out: IC50 for prevention of calcium mobilization by capsaicin, n=7",210 nM
"C=C(C)[C@]12C[C@@H](C)[C@@]34O[C@](Cc5ccccc5)(O[C@@H]1[C@@H]3C=C(COC(=O)Cc1ccc(O)c(OC)c1)C[C@]1(O)C(=O)C(C)=C[C@@H]41)O2 [resiniferatoxin, Resiniferatoxin]",Bmax,rat VR1 [1],250+/−24 fmol/10^6 cells
same,"Hill coefficient, FIG. 1A",rat VR1 [1],1.8
same,Hill number (cooperativity index),rat VR1 [1],2.1 and 2.1+/−0.2
same,dissociation constant (1st order decay),rat VR1 [1],0.12 ± 0.02 min⁻¹
same,"maximal receptor density, FIG. 1A",rat VR1 [1],222 fmol per one million cells
same,non-specific binding as share of total binding,rat VR1 [1],approximately 20%
same,receptor density,rat VR1 [1],1.5×10^5 binding sites per cell
same,"specific binding attained, of its peak value",rat VR1 [1],approximately 90%
same,Kd,"rat VR1 [1]; Half-maximal binding, FIG. 1A",0.056 nM
same,Kd,rat VR1 [1]; [3H]RTX binding affinity (half-maximal binding),0.084 nM
same,Hill number,rat VR1 [7],1.8 and 1.9+/−0.1
same,maximal receptor density,rat VR1 [7],470+/−30 fmol/10^6 cells
same,Kd,rat VR1 [7]; [12],0.13 nM
same,Kd,rat VR1 [7]; [3H]RTX binding affinity (Kd),0.103 nM
same,Bmax,[2],290+/−10 fmol/mg protein
same,"Hill coefficient, FIG. 2",[2],1.5
same,Hill number (cooperativity index),[2],1.7 and 1.9+/−2
same,"maximal receptor density, FIG. 2",[2],302 fmol per one million cells
same,Kd,[2]; [12],0.07 nM
same,Kd,"[2]; Half-maximal binding, FIG. 2",0.06 nM
same,Kd,[2]; [3H]RTX Kd,0.07 nM
same,EC50,rat VR1 [8],4.1 nM
same,time-course of calcium mobilization response,rat VR1 [3],slowly developing but persistent calcium currents
same,EC50,rat VR1 [3]; [13],1.4 nM
same,EC50,[5]; [11],1 nM
same,fold more potent than capsaicin,VR1,approximately 20 fold
same,fold more potent for binding than for inducing calcium uptake,vanilloid receptor (VR),approximately 25 fold
same,Kd,vanilloid receptor (VR); read-out: Kd of binding,0.04 nM
CCCCCCCC/C=C\CCCCCCCC(=O)NCc1ccc(O)c(OC)c1 [olvanil],Ki,[2],0.3 µM
same,EC50,"rat VR1 [3]; Ca2+-mobilization (EC50, nM), agonists",216 nM
same,EC50,rat VR1 [3]; [13],22 nM
same,EC50,[5]; [10],170 nM
Oc1cc2c(cc1O)CN(C(=S)NCCc1ccc(Cl)cc1)CCC2 [capsazepine],Ki,"rat VR1 [7]; Binding affinity (nM), competing ligands",5100 nM
same,Ki,[2],8.6 µM
same,Ki,"rat VR1 [3]; Ca2+-mobilization, Ki value",140 nM and 1100 nM
same,IC50,rat VR1 [3]; IC50 for inhibition of capsaicin-evoked calcium mobilization,2400 nM and 330 nM
same,Ki,"[5]; read-out: 45Ca2+-uptake, Ki value",271 nM
